Key:
[1] = tested on: colon cancer cell line SW620; assay: S-phase fraction of cycling log-phase SW620 cells, BrdU pulse / PI flow cytometry; assay type: cell-based, human; settings: 1 μM, 24 hours
Method: An experiment was run to determine if inhibition of DYRK1B activity would facilitate cells escaping quiescence and result in surge of proliferating cells, utilizing small molecule inhibitor R. Cycling, log-phase cells from colon cancer cell line SW620 were treated with 1 μM of DYRK1B inhibitor R for 24 hours with 1 hour pulse of BrdU before analysis by flow cytometry after propidium iodine staining of DNA. 38% of the cellular population was detected in the S-phase of the cell cycle. Parallel cultures were treated with the small molecule DYRK1B inhibitor R for 24 hours followed by identical FACS analysis (1-hour BrdU pulse followed by specific mAB-FITC and PI staining).

[2] = tested on: Panc-1 pancreatic cancer cells; assay: Quiescent (G0) cell fraction in serum-starved Panc-1 cells, two-parameter flow cytometry (Pyronin Y / Hoechst); assay type: cell-based, human
Method: Panc-1 cells were forced into the quiescent state by serum deprivation for 48 hours. Panc-1 were cultured in DMEM+0.2% FBS for 48 hours. Next the cells were switched to fresh media DMEM+10% FBS (panel A) or to fresh media DMEM+1-% FBS supplemented with 0.25 μM DYRK1B inhibitor R (panel B). As a result of this serum deprivation, 42% of cells were identified in G0 quiescent state, as depicted in FIG. 5A. The percentage of quiescent cells was identified by flow cytometry FACS analysis.
Next, a DYRK1B small molecule inhibitor R, pictured in FIG. 7, was applied to inhibit the activity of DYRK1B kinase, and the percentage of quiescent cells was again analyzed. […] Upon inhibition of the activity of DYRK1B kinase, pancreatic cancer cells left the G0 quiescent state and progressed into cell cycle. While the number of quiescent cells had been reduced to 27% in the presence of DYRK1B inhibitor R, the number of cells in S-phase of cell cycle doubled (13%) as compared to control cells (6% in FIG. 5A). DYRK1B kinase activity was necessary for Panc-1 pancreatic cancer cells to accumulate in a quiescent state. The distribution of cellular population within the cell cycle (i.e. G0, G1, S and G2/M populations) was analyzed by two-parameter flow cytometry. Specifically, the incorporation of Pyronin Y and Hoechst staining correlated to RNA and DNA content distribution, respectively. (Ewton, D. Z., Hu, J., Vilenchik, M., Deng, X., Luk, K. C., Polonskaia, A., Hoffman, A. F., Zipf, K., Boylan, J. F., and Friedman, E. A. (2011) Inactivation of mirk/dyrk1b kinase targets quiescent pancreatic cancer cells, Molecular Cancer Therapeutics 10, 2104-2114).

COc1ncc2cc(C(=O)Nc3cc(C(=O)NCc4cccc(Cl)c4)ccc3Cl)c(=O)[nH]c2n1 [inhibitor R]
increase of fraction of S-phase cells compared to non-treated control [1]: 29% | S-phase population of cells ([1]; 1 hour BrdU pulse, control 38%): 49% | percentage of Panc-1 cells in G0 quiescent state ([2]; Panc-1, 48 h serum deprivation (DMEM+0.2% FBS), then fresh media with 0.25 μM inhibitor, FACS, control 42%): 27% | number of cells in S-phase of cell cycle ([2]; Panc-1, 48 h serum deprivation, then fresh media with 0.25 μM inhibitor, FACS, control 6%): 13% | entry of additional Panc-1 cells into quiescence ([2]; Panc-1, presence of inhibitor): blocked additional Panc-1 cells from entering quiescence
